PubChem BioAssay AID1963850 (Molecular Pharmacology Branch, DTP, NCI, 2024)

Test system: 192522-019-R-J2-PDC complex tumor spheroid viability
Assay: Anticancer human tumor 192522-019-R-J2-PDC patient-derived colon adenocarcinoma cell line growth inhibition [POLQ]
Conditions: for IC50: curve of first compound; for viability, T/C: stronger effect = lower value
Method: Multicellular complex tumor spheroid response to Polymerase (POL) inhibitors (novobiocin, ART-558, RP6685) in combination with a variety of drugs and investigational agents in selected tumor cell lines
The POL inhibitors (novobiocin, ART-558, and RP6685) were evaluated both individually and in combination with standard of care and investigational anticancer small molecules within a complex spheroid model of solid tumors. . Complex spheroids include a stromal component modeled by human endothelial cells (HUVEC) and fibroblasts modeled by human mesenchymal stem cells (MSCs). The concentration ranges selected for each drug and investigational agent were based upon clinically achievable concentrations if the clinical Cmax of the agent was known.
Compounds. The drugs and investigational agents: novobiocin (NSC847541), ART-558 (NSC835418), RP-6685 (NSC848927), peposertib (NSC802822), ceralasertib (NSC780249), elimusertib (NSC800525), camonsertib (NSC841442), AZD-1390 (NSC803789), olaparib (NSC753686), talazoparib (NSC767125), rucaparib (NSC756644), sotorasib (NSC818433), MRTX-1133 (NSC836407), SN-38 (NSC673596), topotecan (NSC609699), epotoside (NSC141540), doxorubicin (NSC123127), gemcitabine (NSC613327), 5-fluorouracil (NSC19893), paclitaxel (NSC125973), vemurafenib (NSC761431), MSA-2 (NSC828583), SN-011 (NSC837082), adavosertib (NSC754352), prexasertib (NSC758257), carboplatin (NSC241240) and oxaliplatin (NSC266046), were obtained from the National Cancer Institute (NCI) Developmental Therapeutics Program Chemical Repository (21). The FDA-approved anticancer drug set is available from the Developmental Therapeutics Program at https://dtp.cancer.gov/organization/dscb/obtaining/. […] The stock solutions were prepared in dimethyl sulfoxide (DMSO, Sigma-Aldrich, St. Louis, MO, cat. D2650), except for the platinum compounds which were prepared in saline (Quality Biological, Gaithersburg, MD, cat. 114-055-101), at 800-fold the tested concentration and stored at -70 degrees C prior to their use. All drugs and investigational agents were tested over a range starting from a high concentration at or near the clinical Cmax and decreasing in half-log increments. If the clinical Cmax for an agent had not been determined, the highest concentration tested was 10 microM, except for SN-38, which was tested at a high concentration of 1 microM.
Cell Culture. All cells were maintained in an incubator at 37 degrees C and 5% CO2 with 95% humidity. The PDC lines were cultured according to standard operating procedures established by the NCI PDMR (https://pdmr.cancer.gov). Table 3 of the manuscript, lists the cell lines along with the number of the three cell types plated to form the mct-spheroids and media for tumor cell growth. After thawing, all PDC lines, except 997537-175-T-J1-PDC and 415267-285-R-J2-PDC, were cultured in Matrigel-coated flasks prepared with a working solution of 1X Ham's F-12 nutrient mix, without supplementation (Thermo Fisher Scientific, cat. 11765054), 100 U/mL penicillin-streptomycin (Thermo Fisher Scientific, cat. 15140122), and 2.5% Matrigel (Corning Inc., Corning, NY, cat. 354248) for the first three passages. The two PDC lines 997537-175-T-J1-PDC and 415267-285-R-J2-PDC were cultured on uncoated flasks. The 857933-349-R-J2-PDC line was cultured in 6C/Colon 1B media containing advanced DMEM/F-12 (Thermo Fisher Scientific, cat. 12634028), 10 mM HEPES (Thermo Fisher Scientific, cat. 15630080), 1X GlutaMAX supplement (Thermo Fisher Scientific, cat. 35050061), 0.1 mg/mL primocin (InvivoGen, San Diego, CA, cat. ant-pm-2), 10% defined fetal bovine serum, heat inactivated (HyClone Laboratories Inc., Logan, UT, cat. SH30070.03HI), 50% L-WRN conditioned media (ATCC, cat. CRL-3276), 1.25 mM N-Acetyl-L-cysteine (Sigma-Aldrich, cat. A9165), 10 mM nicotinamide (Sigma-Aldrich, cat. N0636), 1X B-27 supplement (Thermo Fisher Scientific, cat. 17504044), 1X N-2 supplement (Thermo Fisher Scientific, cat. […]
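Note: spheroids exposed to drugs for seven days before reading.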
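Throughout, for viability, T/C: 100% = DMSO vehicle control viability in luminescence.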

## CCc1cc2c(N3CCc4c(cc(Cn5ccnc5)cc4-c4cn(C)nc4C(F)(F)F)C3=O)cc(C)nc2c(OC)n1 + Cc1cccc(N(C)C(=O)C2C(O)CCN2c2nc(C)cc(C(F)(F)F)c2C#N)c1
Second compound 0.0316 µM
  IC50: > 10 µM
Second compound 0.1 µM
  IC50: > 10 µM
Second compound 0.316 µM
  IC50: > 10 µM
Second compound 1 µM
  IC50: > 10 µM
Second compound 3.16 µM
  IC50: > 10 µM
Second compound 10 µM
  IC50: > 10 µM
Second compound 0.0316 µM, first compound 0.0316 µM
  viability, T/C: 116%
Second compound 0.0316 µM, first compound 0.1 µM
  viability, T/C: 91.1%
Second compound 0.0316 µM, first compound 0.316 µM
  viability, T/C: 83.4%
Second compound 0.0316 µM, first compound 1 µM
  viability, T/C: 87.9%
Second compound 0.0316 µM, first compound 3.16 µM
  viability, T/C: 72.2%
Second compound 0.0316 µM, first compound 10 µM
  viability, T/C: 68.1%
Second compound 0.1 µM, first compound 0.0316 µM
  viability, T/C: 99.3%
Second compound 0.1 µM, first compound 0.1 µM
  viability, T/C: 99.4%
Second compound 0.1 µM, first compound 0.316 µM
  viability, T/C: 88.1%
Second compound 0.1 µM, first compound 1 µM
  viability, T/C: 78.5%
Second compound 0.1 µM, first compound 3.16 µM
  viability, T/C: 75.8%
Second compound 0.1 µM, first compound 10 µM
  viability, T/C: 69.6%
Second compound 0.316 µM, first compound 0.0316 µM
  viability, T/C: 112%
Second compound 0.316 µM, first compound 0.1 µM
  viability, T/C: 99.1%
Second compound 0.316 µM, first compound 0.316 µM
  viability, T/C: 85.4%
Second compound 0.316 µM, first compound 1 µM
  viability, T/C: 79.4%
Second compound 0.316 µM, first compound 3.16 µM
  viability, T/C: 82.7%
Second compound 0.316 µM, first compound 10 µM
  viability, T/C: 72.7%
Second compound 1 µM, first compound 0.0316 µM
  viability, T/C: 102%
Second compound 1 µM, first compound 0.1 µM
  viability, T/C: 94.9%
Second compound 1 µM, first compound 0.316 µM
  viability, T/C: 84.2%
Second compound 1 µM, first compound 1 µM
  viability, T/C: 84.6%
Second compound 1 µM, first compound 3.16 µM
  viability, T/C: 78.3%
Second compound 1 µM, first compound 10 µM
  viability, T/C: 72.6%
Second compound 3.16 µM, first compound 0.0316 µM
  viability, T/C: 107%
Second compound 3.16 µM, first compound 0.1 µM
  viability, T/C: 98.4%
Second compound 3.16 µM, first compound 0.316 µM
  viability, T/C: 101%
Second compound 3.16 µM, first compound 1 µM
  viability, T/C: 79.8%
Second compound 3.16 µM, first compound 3.16 µM
  viability, T/C: 82.5%
Second compound 3.16 µM, first compound 10 µM
  viability, T/C: 73.9%
Second compound 10 µM, first compound 0.0316 µM
  viability, T/C: 110%
Second compound 10 µM, first compound 0.1 µM
  viability, T/C: 103%
Second compound 10 µM, first compound 0.316 µM
  viability, T/C: 93.9%
Second compound 10 µM, first compound 1 µM
  viability, T/C: 90.1%
Second compound 10 µM, first compound 3.16 µM
  viability, T/C: 86.7%
Second compound 10 µM, first compound 10 µM
  viability, T/C: 79.3%
